Holding throughout (experiment): relative viability (nuclei count vs DMSO), 5 days (fraction); higher = more cells survive
Compound in the assay “CAP-232 + Bortezomib”: C[C@H]([C@@H](C(=O)N)NC(=O)[C@@H]1CSSC[C@@H](C(=O)N[C@H](C(=O)N[C@@H](C(=O)N[C@H](C(=O)N1)CCCCN)CC2=CNC3=CC=CC=C32)CC4=CC=C(C=C4)O)NC(=O)[C@@H](CC5=CC=CC=C5)N)O [CAP-232] + CC(C)C[C@H](NC(=O)[C@H](Cc1ccccc1)NC(=O)c1cnccn1)B(O)O [Bortezomib] (partner 0.002 µM)
In a few lines:
(§1)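 Lung cancer cell lines, seeded in 1536-well plates, were treated the following day by pin tool with a single drug or with five library-drug doses (not always all listed) in √10 steps on top of a fixed anchor-drug dose. Cells were fixed and nuclei stained in one step after 5 days, and nuclei were counted. Relative viability is the nuclei count for treated wells divided by that for vehicle wells, reported as medians of duplicate plates.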

Compound in the assay “CAP-232 + Tozasertib”: C[C@H]([C@@H](C(=O)N)NC(=O)[C@@H]1CSSC[C@@H](C(=O)N[C@H](C(=O)N[C@@H](C(=O)N[C@H](C(=O)N1)CCCCN)CC2=CNC3=CC=CC=C32)CC4=CC=C(C=C4)O)NC(=O)[C@@H](CC5=CC=CC=C5)N)O [CAP-232] + Cc1cc(Nc2cc(N3CCN(C)CC3)nc(Sc3ccc(NC(=O)C4CC4)cc3)n2)n[nH]1 [Tozasertib] (partner 0.1 µM)
A digest of the protocol:
as §1

Compound in the assay “CAP-232 + OSI-027”: C[C@H]([C@@H](C(=O)N)NC(=O)[C@@H]1CSSC[C@@H](C(=O)N[C@H](C(=O)N[C@@H](C(=O)N[C@H](C(=O)N1)CCCCN)CC2=CNC3=CC=CC=C32)CC4=CC=C(C=C4)O)NC(=O)[C@@H](CC5=CC=CC=C5)N)O [CAP-232] + COc1cccc2cc(-c3nc([C@H]4CC[C@H](C(=O)O)CC4)n4ncnc(N)c34)[nH]c12 [OSI-027] (partner 0.5 µM)
In a few lines:
as §1

Compound in the assay “CAP-232 + Palbociclib”: C[C@H]([C@@H](C(=O)N)NC(=O)[C@@H]1CSSC[C@@H](C(=O)N[C@H](C(=O)N[C@@H](C(=O)N[C@H](C(=O)N1)CCCCN)CC2=CNC3=CC=CC=C32)CC4=CC=C(C=C4)O)NC(=O)[C@@H](CC5=CC=CC=C5)N)O [CAP-232] + CC(=O)c1c(C)c2cnc(Nc3ccc(N4CCNCC4)cn3)nc2n(C2CCCC2)c1=O [Palbociclib] (partner 0.5 µM)
In a few lines:
as §1

Compound in the assay “CAP-232 + Pemetrexed”: C[C@H]([C@@H](C(=O)N)NC(=O)[C@@H]1CSSC[C@@H](C(=O)N[C@H](C(=O)N[C@@H](C(=O)N[C@H](C(=O)N1)CCCCN)CC2=CNC3=CC=CC=C32)CC4=CC=C(C=C4)O)NC(=O)[C@@H](CC5=CC=CC=C5)N)O [CAP-232] + Nc1nc2[nH]cc(CCc3ccc(C(=O)N[C@@H](CCC(=O)O)C(=O)O)cc3)c2c(=O)[nH]1 [Pemetrexed] (partner 0.2 µM)
A digest of the protocol:
as §1

Regarding ABC-1, the relative viability in the assay with CAP-232 + Bortezomib (first compound 0.4 µM) was 0.296; with CAP-232 + Bortezomib (first compound 1.265 µM), 0.306; with CAP-232 + Bortezomib (first compound 4 µM) it was 0.222; with CAP-232 + Bortezomib (first compound 12.65 µM), 0.264; with CAP-232 + Tozasertib (first compound 0.4 µM), 0.155; in the assay with CAP-232 + Tozasertib (first compound 1.265 µM), 0.143. Further, the relative viability with CAP-232 + Tozasertib (first compound 4 µM) was 0.179; with CAP-232 + Tozasertib (first compound 12.65 µM), 0.148; with CAP-232 + OSI-027 (first compound 0.4 µM) it was 0.455; with CAP-232 + OSI-027 (first compound 1.265 µM) it was 0.421; in the assay with CAP-232 + OSI-027 (first compound 4 µM), 0.481; with CAP-232 + OSI-027 (first compound 12.65 µM), 0.271. Further, the relative viability with CAP-232 + Palbociclib (first compound 0.4 µM) worked out at 0.641; with CAP-232 + Palbociclib (first compound 4 µM), 0.691; with CAP-232 + Palbociclib (first compound 12.65 µM), 0.513.
As for NCI-H1703, the relative viability came to 0.251 with CAP-232 + Bortezomib (first compound 0.4 µM), 0.333 with CAP-232 + Bortezomib (first compound 1.265 µM), 0.226 in the assay with CAP-232 + Bortezomib (first compound 4 µM) and 0.164 with CAP-232 + Bortezomib (first compound 12.65 µM).
Consider NCI-H727, for which the relative viability was determined as 0.754 in the assay with CAP-232 + Bortezomib (first compound 1.265 µM); 1.11 in the assay with CAP-232 + Bortezomib (first compound 4 µM); 0.601 with CAP-232 + Bortezomib (first compound 12.65 µM); 0.491 in the assay with CAP-232 + Tozasertib (first compound 0.4 µM); 0.525 with CAP-232 + Tozasertib (first compound 1.265 µM); 0.698 with CAP-232 + Tozasertib (first compound 4 µM). For the same cell line, the relative viability in the assay with CAP-232 + Tozasertib (first compound 12.65 µM) is 0.499; with CAP-232 + OSI-027 (first compound 0.4 µM) it was 0.593; with CAP-232 + OSI-027 (first compound 1.265 µM), 0.515; in the assay with CAP-232 + OSI-027 (first compound 4 µM), 0.795; in the assay with CAP-232 + OSI-027 (first compound 12.65 µM), 0.421; in the assay with CAP-232 + Palbociclib (first compound 0.4 µM), 0.528. The relative viability was 0.65 with CAP-232 + Palbociclib (first compound 1.265 µM), 0.558 in the assay with CAP-232 + Palbociclib (first compound 4 µM) and 0.701 with CAP-232 + Palbociclib (first compound 12.65 µM).
On to NCI-H2342, for which the relative viability with CAP-232 + Tozasertib (first compound 0.4 µM) is 0.479; with CAP-232 + Tozasertib (first compound 1.265 µM), 0.459; in the assay with CAP-232 + Tozasertib (first compound 4 µM), 0.436; with CAP-232 + Tozasertib (first compound 12.65 µM), 0.437; in the assay with CAP-232 + OSI-027 (first compound 0.4 µM), 0.565; in the assay with CAP-232 + OSI-027 (first compound 1.265 µM), 0.555. In addition, the relative viability in the assay with CAP-232 + OSI-027 (first compound 4 µM) came to 0.623; with CAP-232 + OSI-027 (first compound 12.65 µM), 0.568; in the assay with CAP-232 + Palbociclib (first compound 0.4 µM) it was 0.45; with CAP-232 + Palbociclib (first compound 1.265 µM), 0.509; with CAP-232 + Palbociclib (first compound 4 µM), 0.497; with CAP-232 + Palbociclib (first compound 12.65 µM), 0.487. Moreover, the relative viability with CAP-232 + Pemetrexed (first compound 0.4 µM) was found to be 0.798; with CAP-232 + Pemetrexed (first compound 1.265 µM), 0.745; with CAP-232 + Pemetrexed (first compound 4 µM), 0.779; with CAP-232 + Pemetrexed (first compound 12.65 µM), 0.835.
As to SW 900, the relative viability was found to be 0.658 with CAP-232 + Tozasertib (first compound 0.4 µM); 0.593 with CAP-232 + Tozasertib (first compound 1.265 µM); 0.583 with CAP-232 + Tozasertib (first compound 4 µM); 0.582 in the assay with CAP-232 + Tozasertib (first compound 12.65 µM); 0.66 with CAP-232 + OSI-027 (first compound 0.4 µM); 0.54 with CAP-232 + OSI-027 (first compound 1.265 µM). Further, the relative viability came out at 0.726 with CAP-232 + OSI-027 (first compound 4 µM); 0.449 with CAP-232 + OSI-027 (first compound 12.65 µM); 0.528 in the assay with CAP-232 + Palbociclib (first compound 0.4 µM); 0.481 with CAP-232 + Palbociclib (first compound 1.265 µM); 0.512 in the assay with CAP-232 + Palbociclib (first compound 4 µM); 0.465 with CAP-232 + Palbociclib (first compound 12.65 µM). Further, the relative viability with CAP-232 + Pemetrexed (first compound 0.4 µM) is 0.487; with CAP-232 + Pemetrexed (first compound 1.265 µM), 0.48; in the assay with CAP-232 + Pemetrexed (first compound 4 µM), 0.47; with CAP-232 + Pemetrexed (first compound 12.65 µM), 0.499.
